In patent US12077503B2, “Substituted cyclic amides and their use as herbicides” (FMC CORPORATION, priority 2015, dated 2024) one finds pest or weed control, plant injury and Corn plant response rating (crop injury, 0 = no effect, 100 = complete kill) data, which are given here for two compounds.

Like-named read-outs stand apart in the source and are kept apart here.

Holding throughout (type): in vivo
Assay [1] deals with giant foxtail (Setaria faberii). Nature of the assay: Test A preemergence. The following applies: Setaria faberi, pre-emergence, 240 h; for pest or weed control at 125 g/ha: 125 g ai/ha; for pest or weed control at 500 g/ha: 500 g ai/ha, visual injury rating about 10 d after treatment, 0 to 100 scale (0 no effect, 100 complete control). The method in brief:
(§1)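 Compounds were formulated in a non-phytotoxic solvent mixture with surfactant and applied as a preemergence directed soil spray after seeding, or sprayed postemergence over plants 2 to 10 cm tall at the one- to two-leaf stage. Evaluation after about 10 d compared treated with untreated controls, using a scale from 0 (no effect) to 100 (complete control).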

Assay [2] concerns ducksalad (Heteranthera limosa). Nature of the assay: Test B flooded paddy test. The following applies: Heteranthera limosa, 250 g ai/ha, Flood; 0 to 100 scale where 0 is no effect and 100 is complete control; read-out: Ducksalad plant response rating. An outline of the steps: (§2)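 Plants at 2-leaf stage flooded to 3 cm above soil, with compounds applied directly to paddy water and that depth maintained. Plants kept in greenhouse 13–15 d. Visual rating versus controls on a 0 (no effect) to 100 (complete control) scale.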

The next assay concerns rice (Oryra sativa). Briefly: Test B flooded paddy test. The following applies: Oryza sativa, 250 g ai/ha, Flood; 0 to 100 scale where 0 is no effect and 100 is complete control; read-out: Rice plant response rating. An outline of the steps:
as §2

Assay [3] has as its system sedge, umbrella (small-flower umbrella sedge, Cyperus difformis). Nature of the assay: Test B flooded paddy test. The following applies: Cyperus difformis, 250 g ai/ha, Flood; 0 to 100 scale where 0 is no effect and 100 is complete control; read-out: Sedge, Umbrella plant response rating. The method in brief: as §2
The subject of assay [4] is barnyardgrass (Echinochloa crus-galli). Nature of the assay: Test B flooded paddy test. As to conditions: Echinochloa crus-galli, 250 g ai/ha, Flood; 0 to 100 scale where 0 is no effect and 100 is complete control; read-out: Barnyardgrass plant response rating. An outline of the steps: as §2
Another assay deals with corn (Zea mays). Briefly: Test A postemergence. As to conditions: Zea mays, post-emergence, 240 h, postemergence; for plant injury at 125 g/ha: 125 g ai/ha, visual injury on 0 to 100 scale (0 no effect, 100 complete control). The method in brief:
as §1

The subject of assay [5] is giant foxtail (Setaria faberii). Briefly: Test A postemergence. As to conditions: Setaria faberi, post-emergence, 240 h, postemergence; for pest or weed control at 125 g/ha: 125 g ai/ha, visual injury on 0 to 100 scale (0 no effect, 100 complete control); for pest or weed control at 500 g/ha: 500 g ai/ha. The method in brief: as §1
For assay [6], the system named is blackgrass (Alopecurus myosuroides). Nature of the assay: Test A postemergence. The following applies: Alopecurus myosuroides, post-emergence, 240 h, postemergence; for pest or weed control at 125 g/ha: 125 g ai/ha, visual injury on 0 to 100 scale (0 no effect, 100 complete control); for pest or weed control at 500 g/ha: 500 g ai/ha. An outline of the steps:
as §1

In assay [7] the test system is Galium (catchweed bedstraw, Galium aparine). Nature of the assay: Test A postemergence. As to conditions: Galium, post-emergence, 240 h, postemergence; for pest or weed control at 125 g/ha: 125 g ai/ha, visual injury on 0 to 100 scale (0 no effect, 100 complete control); for pest or weed control at 500 g/ha: 500 g ai/ha. An outline of the steps:
as §1

In assay [8] the test system is ragweed (common ragweed, Ambrosia elatior). Briefly: Test A postemergence. The following applies: Ambrosia artemisiifolia, post-emergence, 240 h, postemergence, read-out: Ragweed plant response rating; for pest or weed control at 125 g/ha: 125 g ai/ha, visual injury on 0 to 100 scale (0 no effect, 100 complete control), approx. 10 d. The method in brief:
as §1

For assay [9], the system named is barnyardgrass (Echinochloa crus-galli). Briefly: Test A postemergence. The following applies: Echinochloa crus-galli, post-emergence, 240 h, postemergence; for pest or weed control at 125 g/ha: 125 g ai/ha, visual injury on 0 to 100 scale (0 no effect, 100 complete control); for pest or weed control at 500 g/ha: 500 g ai/ha. An outline of the steps:
as §1

Assay [10] deals with wheat (Triticum aestivum). Nature of the assay: Test A postemergence. The following applies: Triticum aestivum, post-emergence, 240 h, postemergence, read-out: Wheat plant response rating; for plant injury at 125 g/ha: 125 g ai/ha, visual injury on 0 to 100 scale (0 no effect, 100 complete control), approx. 10 d. The method in brief:
as §1

In another assay the test system is Kochia (Kochia scoparia). Nature of the assay: Test A postemergence. The following applies: Bassia scoparia, post-emergence, 240 h, postemergence; for pest or weed control at 125 g/ha: 125 g ai/ha, visual injury on 0 to 100 scale (0 no effect, 100 complete control); for pest or weed control at 500 g/ha: 500 g ai/ha. An outline of the steps:
as §1

For assay [11], the system named is ryegrass, Italian (Italian ryegrass, Lolium multiflorum). Nature of the assay: Test A postemergence. The following applies: Lolium multiflorum, post-emergence, 240 h, postemergence, read-out: Ryegrass, Italian plant response rating; for pest or weed control at 125 g/ha: 125 g ai/ha, visual injury on 0 to 100 scale (0 no effect, 100 complete control), approx. 10 d. An outline of the steps: as §1

In assay [12] the test system is pigweed (Amaranthus retroflexus). Nature of the assay: Test A postemergence. As to conditions: Amaranthus retroflexus, post-emergence, 240 h, postemergence, read-out: Pigweed plant response rating; for pest or weed control at 125 g/ha: 125 g ai/ha, visual injury on 0 to 100 scale (0 no effect, 100 complete control), approx. 10 d. An outline of the steps: as §1
[13] abbreviates: preemergence, read-out: Foxtail, Giant plant response rating.
Setting [14] is: approx. 10 d, read-out: Corn plant response rating.
[15] abbreviates: approx. 10 d, read-out: Foxtail, Giant plant response rating.
The mark [16] stands for this setting: approx. 10 d, read-out: Blackgrass plant response rating.
Setting [17] is: approx. 10 d, read-out: Galium plant response rating.
The mark [18] stands for this setting: approx. 10 d, read-out: Barnyardgrass plant response rating.
Where [19] appears, read: approx. 10 d, read-out: Kochia plant response rating.
The mark [20] stands for this setting: 500 g ai/ha, 0 to 100 scale, 0 is no effect, 100 is complete control.

As to `O=C(Nc1ccccc1F)[C@H]1C(=S)NC[C@@H]1c1ccc(C(F)(F)F)cc1` (racemic) [Compound 1047], the pest or weed control at 125 g/ha in assay [1] (Preemergence, visual injury rating after approximately 10 d, read-out: Foxtail, Giant plant response rating (0 to 100 scale, 0 is no effect, 100 is complete control)) turned out to be 60%; in [5] (setting [15]), 50%; in assay [6] (setting [16]), 0%; in assay [7] (setting [17]), 0%; in assay [8] it was 0%; in [9] (setting [18]), 40%. Also, the pest or weed control at 125 g/ha (in the assay on Kochia (Kochia scoparia) (setting [19]); in assay [11]; in assay [12]) was 0% in each case. Besides, the pest or weed control at 500 g/ha amounted to 80% in [1] (setting [13]); 80% in [5] (visual injury, 0 to 100 scale (0 no effect, 100 complete control), approx. 10 d, read-out: Plant response rating, Foxtail, Giant); 0% in assay [6] (visual injury, 0 to 100 scale (0 no effect, 100 complete control), approx. 10 d, read-out: Plant response rating, Blackgrass); 50% in assay [7] (visual injury, 0 to 100 scale (0 no effect, 100 complete control), approx. 10 d, read-out: Plant response rating, Galium); 80% in assay [9] (visual injury, 0 to 100 scale (0 no effect, 100 complete control), approx. 10 d, read-out: Plant response rating, Barnyardgrass); 20% in the assay with Kochia (Kochia scoparia) (visual injury, 0 to 100 scale (0 no effect, 100 complete control), approx. 10 d, read-out: Plant response rating, Kochia). The pest or weed control at 250 g/ha (in assay [2]; in the assay on rice (Oryra sativa); in [3]; in assay [4]) was 0% in each case. Besides, the plant injury at 125 g/ha (in the assay with corn (Zea mays) (setting [14]); in assay [10]) was 0% in each case. In addition, in the assay with corn (Zea mays) (500 g ai/ha, visual injury, 0 to 100 scale (0 no effect, 100 complete control), approx. 10 d), the Corn plant response rating (crop injury, 0 = no effect, 100 = complete kill) at 500 g/ha was 0%.
Turning to `C/C=C/N1C[C@@H](c2cccc(C(F)(F)F)c2)[C@H](C(=O)Nc2ccccc2F)C1=O` (racemic) [Compound 1094], the pest or weed control at 125 g/ha in assay [1] (preemergence, 0 to 100 scale where 0 is no effect and 100 is complete control, approx. 10 d, read-out: Foxtail, Giant plant response rating) is 90%; in [5] (setting [15]), 30%; in assay [6] (setting [16]), 0%; in assay [7] (setting [17]), 20%; in assay [8], 0%; in assay [9] (setting [18]) it was 40%. In addition, the pest or weed control at 125 g/ha (in the assay with Kochia (Kochia scoparia) (setting [19]); in assay [11]; in [12]) was 0% throughout. Also, the pest or weed control at 500 g/ha in assay [1] (setting [13]) is 100%; in assay [5] (0 to 100 scale, 0 is no effect, 100 is complete control, read-out: Foxtail, Giant plant response rating), 80%; in assay [6] (0 to 100 scale, 0 is no effect, 100 is complete control, read-out: Blackgrass plant response rating) it was 30%; in assay [7] (0 to 100 scale, 0 is no effect, 100 is complete control, read-out: Galium plant response rating) it was 20%; in assay [8] (setting [20]) it was 0%; in assay [9] (0 to 100 scale, 0 is no effect, 100 is complete control, read-out: Barnyardgrass plant response rating), 80%. Further, the pest or weed control at 500 g/ha stood at 0% in the assay on Kochia (Kochia scoparia) (0 to 100 scale, 0 is no effect, 100 is complete control, read-out: Kochia plant response rating); 20% in [11] (setting [20]); 20% in assay [12] (setting [20]). The pest or weed control at 250 g/ha in assay [2] was found to be 0%; with rice (Oryra sativa) it was 0%; in assay [3], 0%; in assay [4], 45%. The plant injury at 125 g/ha in the assay on corn (Zea mays) (setting [14]) came to 0%; in [10], 20%. The plant injury at 500 g/ha in the assay with corn (Zea mays) (500 g ai/ha, 0 to 100 scale, 0 is no effect, 100 is complete control, read-out: Corn plant response rating) stood at 0%; in assay [10] (setting [20]), 30%.
